According to EP4631498A1, “EYE DROP-TYPE PHARMACEUTICAL COMPOSITION CONTAINING ENVOGLIFLOZIN” (Daewoong Therapeutics Inc., priority 2022, dated 2024):
In brackets after ≈: the same amount, converted by molar mass. Like-named read-outs stand apart in the source and are kept apart here.

Experiment: Saturation solubility of enavogliflozin in aqueous excipient solutions (HPLC)
Format: physicochemical
Conditions: for solubility at 12 h: aqueous excipient solution (excipient in purified water), thermodynamic from solid
Protocol: According to Table 1 below, enavogliflozin in the amount corresponding to each standard solution and 70 mL of methanol were placed in a volumetric flask and then completely dissolved under ultrasonic agitation. Methanol was added thereto to adjust the total volume to 100 mL. The resulting solution was taken and filtered through a 0.45 µm RC (Regenerated Cellulose) membrane filter. The first 2 mL was discarded and then the filtrate was used as a standard solution.
Each excipient was dissolved in 5 mL of purified water at the maximum concentration recommended by the FDA (Table 2) and then enavogliflozin was added thereto until it was no longer dissolved, followed by stirring for approximately 12 hours. After confirming no dissolution after 12 hours, each sample was centrifuged at 4000 rpm for 30 minutes and the clear supernatant (1 mL) was taken and then diluted with methanol. The resulting solution was filtered through a 0.45 µm RC membrane filter. The first 2 mL was discarded and then the filtrate was used as a test solution.
The peak areas of the standard and test solutions were analyzed under the following HPLC conditions. • Detector: UV spectrophotometer (wavelength: 225 nm) • Column: Capcellpak C18 (4.6 x 250 mm, 5 µm) • Column temperature: about 35°C • Sample temperature: about 25°C • Mobile phase: Buffer solution : acetonitrile = 25 : 75 (v/v) (Buffer solution: prepared by dissolving 100 µl of trifluoroacetic acid in 1000 mL of water) • Flow rate: 1.0 mL/min • Injection volume: 10 µL • Analysis time: about 20 minutes
Polyoxyl 40 stearate (Myrj™ S40) was dissolved in 5 mL of purified water at the concentration of 7.0 w/v% and then enavogliflozin was added thereto until it was no longer dissolved, followed by stirring for approximately 12 hours. Thereafter, the degree of solubilization was evaluated in the same manner as in Example 1.

## OC[C@H]1O[C@@H](c2cc(Cc3ccc(C4CC4)cc3)c(Cl)c3c2CCO3)[C@H](O)[C@@H](O)[C@@H]1O [enavogliflozin, Enavogliflozin]
Aqualon™ CMC 0.50 %w/v
  Solubility for unit concentration: 0.59 mg/%
Cavasol™ W8 1.50 %w/v
  Solubility for unit concentration: 0.72 mg/%
EtOH 0.50 %w/v
  Solubility for unit concentration: 0.51 mg/%
Glycerol 2.25 %w/v
  Solubility for unit concentration: 0.11 mg/%
HPMC 606 0.60 %w/v
  Solubility for unit concentration: 0.56 mg/%
Kollidon™ K30 15.00 %w/v
  Solubility for unit concentration: 0.24 mg/%
Kollidon™ K90 1.50 %w/v
  Solubility for unit concentration: 0.41 mg/%
Kolliphor™ EL 5.00 %w/v
  Solubility for unit concentration: 3.37 mg/%
Kolliphor™ HS 15 0.25 %w/v
  Solubility for unit concentration: 4.09 mg/%
Kolliphor™ RH 40 1.00 %w/v
  Solubility for unit concentration: 3.64 mg/%
Kollisolv™ PG 1.50 %w/v
  Solubility for unit concentration: 0.18 mg/%
PEG 400 4.00 %w/v
  Solubility for unit concentration: 0.08 mg/%
TPGS 0.50 %w/v
  Solubility for unit concentration: 4.63 mg/%
Tween™ 20 0.05 %w/v
  Solubility for unit concentration: 7.21 mg/%
Tween™ 80 4.00 %w/v
  Solubility for unit concentration: 3.95 mg/%
Aqueous with cosolvent or surfactant or cyclodextrin, Aqualon™ CMC 0.50 %w/v in purified water, read-out: Saturation solubility
  solubility at 12 h: 0.3 mg/mL (≈ 671 µM)
Aqueous with cosolvent or surfactant or cyclodextrin, Cavasol™ W8 1.50 %w/v in purified water, read-out: Saturation solubility
  solubility at 12 h: 1.09 mg/mL (≈ 2440 µM)
Aqueous with cosolvent or surfactant or cyclodextrin, HPMC 606 0.60 %w/v in purified water, read-out: Saturation solubility
  solubility at 12 h: 0.33 mg/mL (≈ 738 µM)
Aqueous with cosolvent or surfactant or cyclodextrin, Kollidon™ K30 15.00 %w/v in purified water, read-out: Saturation solubility
  solubility at 12 h: 3.6 mg/mL (≈ 8060 µM)
Aqueous with cosolvent or surfactant or cyclodextrin, Kollidon™ K90 1.50 %w/v in purified water, read-out: Saturation solubility
  solubility at 12 h: 0.62 mg/mL (≈ 1390 µM)
Aqueous with cosolvent or surfactant or cyclodextrin, Kolliphor™ EL 5.00 %w/v in purified water, read-out: Saturation solubility
  solubility at 12 h: 16.8 mg/mL (≈ 37700 µM)
Aqueous with cosolvent or surfactant or cyclodextrin, Kolliphor™ EL 5.0 w/v% in purified water, read-out: Saturation solubility of enavogliflozin
  solubility at 12 h: 16.8 mg/mL (≈ 37700 µM)
Aqueous with cosolvent or surfactant or cyclodextrin, Kolliphor™ HS 15 0.25 %w/v in purified water, read-out: Saturation solubility
  solubility at 12 h: 1.02 mg/mL (≈ 2280 µM)
Aqueous with cosolvent or surfactant or cyclodextrin, Kolliphor™ RH 40 1.00 %w/v in purified water, read-out: Saturation solubility
  solubility at 12 h: 3.64 mg/mL (≈ 8140 µM)
Aqueous with cosolvent or surfactant or cyclodextrin, Polyoxyl 40 stearate 7.0 w/v% in purified water, read-out: Saturation solubility of enavogliflozin
  solubility at 12 h: 32 mg/mL (≈ 71600 µM)
Aqueous with cosolvent or surfactant or cyclodextrin, TPGS 0.50 %w/v in purified water, read-out: Saturation solubility
  solubility at 12 h: 2.31 mg/mL (≈ 5170 µM)
Aqueous with cosolvent or surfactant or cyclodextrin, Tween™ 20 0.05 %w/v in purified water, read-out: Saturation solubility
  solubility at 12 h: 0.36 mg/mL (≈ 806 µM)
Aqueous with cosolvent or surfactant or cyclodextrin, Tween™ 80 4.00 %w/v in purified water, read-out: Saturation solubility
  solubility at 12 h: 15.8 mg/mL (≈ 35400 µM)
water, EtOH 0.50 %w/v in purified water, read-out: Saturation solubility
  solubility at 12 h: 0.26 mg/mL (≈ 582 µM)
water, Glycerol 2.25 %w/v in purified water, read-out: Saturation solubility
  solubility at 12 h: 0.24 mg/mL (≈ 537 µM)
water, Kollisolv™ PG 1.50 %w/v in purified water, read-out: Saturation solubility
  solubility at 12 h: 0.27 mg/mL (≈ 604 µM)
water, PEG 400 4.00 %w/v in purified water, read-out: Saturation solubility
  solubility at 12 h: 0.33 mg/mL (≈ 738 µM)
